Experimental findings from patent US9409952B2, “Peptide-compound cyclization method” (Chugai Seiyaku Kabushiki Kaisha, priority 2011, dated 2016) are described below.

A short description of data set [1]: PAMPA (parallel artificial membrane permeability assay). The class given is in vitro ADME. The conditions noted are these: PAMPA; membrane permeation rate (Pe); 50 mM MOPSO buffer pH 6.5 with 5.0% glycocholic acid, 37° C., 18 hours; read-out: iPAMPA Pe. An outline of the steps:
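Artificial membrane was 10% (w/v) egg lecithin plus 0.5% (w/v) cholesterol in dodecane on a PVDF filter. A 10 mM DMSO stock was added at 0.5% (v/v) to donor buffer (50 mM MOPSO, pH 6.5, 5.0% glycocholic acid). After 18 h at 37 °C, LC/MS or LC/UV gave donor and acceptor levels for Pe.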

Data set [2] can be described thus: Metabolic stability in human hepatic microsome. Type of data set: in vitro ADME. The note with it: microsomes, pH 7.4; human hepatic microsome, NADPH(+); read-out: CL NADPH(+).

SMILES strings stand for the structures. Starred links: 1 amine or outer side, 2 acyl side, 3 side chain; linkers in the order of their positions; H or OH if unused. Positions of bridges follow the written chain, without caps; N, C: chain ends. Non-standard residues stand in square brackets, D forms with d. Residues, ends and D or L forms follow the SMILES beside them. *: point of attachment. NMeF = CN[C@@H](Cc1ccccc1)C(=O)O; NMeβAla = CN(CCC(=O)[*:2])[*:1]; NMeL = CN[C@@H](CC(C)C)C(=O)O; NMeV = CN[C@H](C(=O)O)C(C)C; NMeA = CN[C@@H](C)C(=O)O; Piperidide = C1CCN(*)CC1; Sar = CNCC(=O)O

For `CC[C@H](C)[C@@H]1NC(=O)[C@@H](C)NC(=O)C[C@@H](C(=O)N(C)[C@@H](Cc2ccccc2)C(=O)N[C@@H](C)C(=O)N2CCCCC2)NC(=O)[C@H](Cc2ccccc2)N(C)C(=O)[C@H](C)NC(=O)[C@H](CC(C)C)N(C)C(=O)[C@H](C)N(C)C(=O)[C@H]([C@@H](C)O)NC(=O)[C@H](C(C)C)N(C)C(=O)[C@H](C)N(C)C1=O` [DP-491] ([dA]I[NMeA][NMeV]T[NMeA][NMeL]A[NMeF]D[NMeF]A-Piperidide; lactam N-10), the Papp at 18 hours, 50 µM in data set [1] was found to be 18 ×10⁻⁶ cm/s. Also, the microsomal CLint at 1 uM in data set [2] is 39 µL/min/mg.

Regarding `CC[C@H](C)[C@@H]1NC(=O)[C@H](Cc2ccccc2)N(C)C(=O)[C@H](C)N(C)C(=O)[C@H]([C@@H](C)O)NC(=O)[C@H](CC(C)C)N(C)C(=O)[C@H](C)N(C)C(=O)C[C@@H](C(=O)N(C)[C@@H](Cc2ccccc2)C(=O)N[C@@H](C)C(=O)N2CCCCC2)NC(=O)[C@H](C(C)C)N(C)C(=O)[C@H](CC(C)C)N(C)C(=O)CN(C)C1=O` [DP-492] ([NMeA][NMeL]T[NMeA][NMeF]I[Sar][NMeL][NMeV]D[NMeF]A-Piperidide; lactam N-10), the Papp at 18 hours, 50 µM in data set [1] came to 20 ×10⁻⁶ cm/s. In data set [2], the microsomal CLint at 1 uM came out at 61 µL/min/mg.

As to `CC(C)C[C@H]1C(=O)N(C)[C@@H](CC(C)C)C(=O)N(C)[C@@H](Cc2ccccc2)C(=O)N(C)[C@@H](CC(C)C)C(=O)N[C@H](C(=O)N(C)[C@@H](Cc2ccccc2)C(=O)N[C@@H](C)C(=O)N2CCCCC2)CC(=O)N(C)CC(=O)N[C@@H]([C@@H](C)O)C(=O)N(C)[C@@H](Cc2ccccc2)C(=O)N(C)[C@@H](CC(C)C)C(=O)N[C@@H](C)C(=O)N1C` [DP-493] ([Sar]T[NMeF][NMeL]A[NMeL][NMeL][NMeF][NMeL]D[NMeF]A-Piperidide; lactam N-10), the Papp at 18 hours, 50 µM in data set [1] amounted to 2.4 ×10⁻⁶ cm/s. In addition, in data set [2], the microsomal CLint at 1 uM came to 52 µL/min/mg.

Regarding `CC[C@H](C)[C@@H]1NC(=O)CCN(C)C(=O)C[C@@H](C(=O)N(C)[C@@H](Cc2ccccc2)C(=O)N(C)[C@@H](Cc2ccccc2)C(=O)N[C@@H](C)C(=O)N2CCCCC2)NC(=O)[C@H](C(C)C)N(C)C(=O)[C@H](C)NC(=O)[C@H](CC(C)C)N(C)C(=O)CN(C)C(=O)[C@H]([C@@H](C)O)NC(=O)[C@H](C)N(C)C(=O)[C@H](Cc2ccccc2)N(C)C1=O` [DP-495] ([NMeβAla]I[NMeF][NMeA]T[Sar][NMeL]A[NMeV]D[NMeF][NMeF]A-Piperidide; lactam N-10), the Papp at 18 hours, 50 µM in data set [1] came to 21 ×10⁻⁶ cm/s. Further, the microsomal CLint at 1 uM in data set [2] is 7 µL/min/mg.

`CC[C@H](C)[C@@H]1NC(=O)[C@H](CC(C)C)N(C)C(=O)CCN(C)C(=O)C[C@@H](C(=O)N(C)[C@@H](Cc2ccccc2)C(=O)N(C)[C@@H](Cc2ccccc2)C(=O)N[C@@H](C)C(=O)N2CCCCC2)NC(=O)[C@H](C(C)C)N(C)C(=O)[C@H](CC(C)C)N(C)C(=O)CN(C)C(=O)[C@H]([C@@H](C)O)NC(=O)[C@H](Cc2ccccc2)NC(=O)[C@H](C(C)C)N(C)C1=O` [DP-496] ([NMeβAla][NMeL]I[NMeV]FT[Sar][NMeL][NMeV]D[NMeF][NMeF]A-Piperidide; lactam N-10): the Papp at 18 hours, 50 µM in data set [1] is 23 ×10⁻⁶ cm/s. In data set [2], the microsomal CLint at 1 uM worked out at 13 µL/min/mg.

For the compound `CC(C)C[C@H]1C(=O)N(C)[C@@H](C(C)C)C(=O)N(C)[C@@H](C)C(=O)N[C@H](C(=O)N(C)[C@@H](Cc2ccccc2)C(=O)N(C)[C@@H](Cc2ccccc2)C(=O)N[C@@H](C)C(=O)N2CCCCC2)CC(=O)N(C)CCC(=O)N(C)CC(=O)N[C@@H]([C@@H](C)O)C(=O)N[C@@H](Cc2ccccc2)C(=O)N(C)[C@@H](C(C)C)C(=O)N[C@@H](C)C(=O)N1C` [DP-497] ([NMeβAla][Sar]TF[NMeV]A[NMeL][NMeV][NMeA]D[NMeF][NMeF]A-Piperidide; lactam N-10), in data set [1], the Papp at 18 hours, 50 µM stood at 9.3 ×10⁻⁶ cm/s. The microsomal CLint at 1 uM in data set [2] was 58 µL/min/mg.
